Tested on: dermal capillaries of normal human skin maintained alive
Test: Vascular modulation (vasodilation/vasoconstriction) in a model of normal human skin maintained alive; histological morphometry of dermal capillaries
Assay type: cell-based
Conditions: 1 μM noradrenalin in culture medium, 48 hours organ culture; for percentage of dilated vessels (dilated capillaries): mean of six skin samples, control skin 74.8 ± 20.8; for mean area occupied by the lumen of the blood vessels (capillaries) in the dermis: control skin 153.6 ± 74.4
Description: The object of this study is to analyse the effect on vascular modulation, namely vasodilation or vasoconstriction, of the essential oil of Laserpitium siler L. evaluated in a model of normal human skin maintained alive.
The analyses are histological by morphometric quantification of the calibre of the dermal capillaries and semi-quantitative evaluation of the oedema.
Fragments of normal human skin are obtained from a plastic surgery. They are placed in inserts, which are themselves positioned on culture wells. Culture medium specifically adapted to survival maintenance is added to the bottom of the wells, a passage being made by slow diffusion between the two compartments via a porous membrane (3 μm).
The second positive control consisted in adding 1 μM noradrenalin to the culture medium so as to obtain vasoconstriction of the dermal capillaries.
The essential oil of Laserpitium siler L. at the test concentrations dissolved in ethanol is added to the culture medium.
The skin fragments are then maintained in organ culture for 48 hours in an oven under a humid atmosphere, at 37° C. and in the presence of 5% CO2.
The skin fragments are fixed in Bouin liquid and included in paraffin. After staining with haemalum-eosin, two criteria are evaluated on the dermis: the oedema and the calibre of the capillaries.
After staining with haemalum-eosin, the vascular dilation is evaluated by counting the number of dilated blood vessels on the entire histological slice (16 fields at magnification 40). This number is carried over to the total number of blood vessels in order to calculate the percentage of dilated vessels.
Moreover, a morphometric analysis of the area (μm^2) occupied by the lumen of the blood vessels was performed in order to determine the mean area (μm^2) occupied in the dermis by the vessels.
A mean is calculated for each parameter from the results obtained on the six skin samples. The statistical analysis was performed via the “reduced deviation” Student test or paired-samples test, with a risk a of 5%.

NC[C@H](O)c1ccc(O)c(O)c1 [noradrenalin]
percentage of dilated vessels (dilated capillaries): 52.5 ± 20.6% | percentage of dilated vessels (dilated capillaries) (listed as Noradrenalin): 52.5% | mean area occupied by the lumen of the blood vessels (capillaries) in the dermis: 93.7 ± 65.7 μm^2 | mean area occupied by the lumen of the blood vessels (capillaries) in the dermis (listed as Noradrenalin): 93.7 μm^2

From US10085933B2, “Cosmetic use of an essential oil of Laserpitium siler L. for keratin materials” (L'OREAL, priority 2013, dated 2018)
